Results from ChEMBL document CHEMBL1201862, “PubChem BioAssay data set” (2004).
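Interpolation was linear, between the two tested concentrations surrounding the appropriate level; five concentrations were tested over 48 hours in 96-well plates. At the GI50, growth is halved.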 Calls of active or inactive are those of the source. No stated cut-off is given here; in the data, active = GI50 up to about 1.1 µM and inactive = higher.

Assays:
Test in all cases: inhibition of tumour cell growth, NCI panel, 48 h
SF-268 = tested on: SF-268
UACC-62 = tested on: UACC-62
LOX IMVI = tested on: LOX IMVI
NCI-H23 = tested on: NCI-H23
RXF 393 = tested on: RXF 393
OVCAR-3 = tested on: OVCAR-3
MDA-N = tested on: MDA-N
SF-539 = tested on: SF-539
UACC-257 = tested on: UACC-257
SK-OV-3 = tested on: SK-OV-3
PC-3 = tested on: PC-3
HOP-92 = tested on: HOP-92
NCI-H226 = tested on: NCI-H226
CCRF-CEM = tested on: CCRF-CEM
K562 = tested on: K562
SK-MEL-28 = tested on: SK-MEL-28
KM12 = tested on: KM12
ACHN = tested on: ACHN
BT-549 = tested on: BT-549
NCI/ADR-RES = tested on: NCI/ADR-RES
IGROV-1 = tested on: IGROV-1
MDA-MB-435 = tested on: MDA-MB-435
SK-MEL-5 = tested on: SK-MEL-5
U-251 = tested on: U-251
SK-MEL-2 = tested on: SK-MEL-2
786-0 = tested on: 786-0
OVCAR-4 = tested on: OVCAR-4
DU-145 = tested on: DU-145
HCT-116 = tested on: HCT-116
HOP-62 = tested on: HOP-62
HCT-15 = tested on: HCT-15
RPMI-8226 = tested on: RPMI-8226
SR = tested on: SR
A498 = tested on: A498
UO-31 = tested on: UO-31
EKVX = tested on: EKVX
SN12C = tested on: SN12C
MOLT-4 = tested on: MOLT-4
NCI-H460 = tested on: NCI-H460
HT-29 = tested on: HT-29
MCF7 = tested on: MCF7
SF-295 = tested on: SF-295
CAKI-1 = tested on: CAKI-1
MDA-MB-231 = tested on: MDA-MB-231
TK-10 = tested on: TK-10
HCC 2998 = tested on: HCC 2998
Hs-578T = tested on: Hs-578T
T47D = tested on: T47D
SNB-75 = tested on: SNB-75
SW-620 = tested on: SW-620
COLO 205 = tested on: COLO 205
HL-60 = tested on: HL-60
OVCAR-5 = tested on: OVCAR-5
NCI-H522 = tested on: NCI-H522
OVCAR-8 = tested on: OVCAR-8
SNB-19 = tested on: SNB-19
Malme-3M = tested on: Malme-3M
A549 = tested on: A549
M14 = tested on: M14

Measured: GI50

COC(OC)C(O)C1OC=CC1n1cnc2c(N)ncnc21 (configuration not stated)
active: UO-31 0.792 µM
inactive: SF-268 > 100 µM | UACC-62 > 100 µM | LOX IMVI > 100 µM | NCI-H23 > 100 µM | RXF 393 13 µM | OVCAR-3 > 100 µM | MDA-N > 100 µM | SF-539 > 100 µM | UACC-257 > 100 µM | SK-OV-3 > 100 µM | PC-3 > 100 µM | HOP-92 > 100 µM | NCI-H226 > 100 µM | CCRF-CEM > 100 µM | K562 > 100 µM | SK-MEL-28 > 100 µM | KM12 > 100 µM | ACHN > 100 µM | BT-549 > 100 µM | NCI/ADR-RES > 100 µM | IGROV-1 > 100 µM | MDA-MB-435 > 100 µM | SK-MEL-5 > 100 µM | U-251 > 100 µM | SK-MEL-2 > 100 µM | 786-0 > 100 µM | OVCAR-4 > 100 µM | DU-145 > 100 µM | HCT-116 > 100 µM | HOP-62 > 100 µM | RPMI-8226 > 100 µM | SR > 100 µM | A498 > 100 µM | EKVX > 100 µM | SN12C > 100 µM | MOLT-4 > 100 µM | NCI-H460 > 100 µM | HT-29 > 100 µM | MCF7 > 100 µM | SF-295 > 100 µM | CAKI-1 > 100 µM | MDA-MB-231 > 100 µM | TK-10 > 100 µM | HCC 2998 > 100 µM | Hs-578T > 100 µM | T47D > 100 µM | SNB-75 18.3 µM | SW-620 > 100 µM | COLO 205 > 100 µM
> 100 µM: HCT-15

CCOC(=O)N1N(c2ccccc2)C(=O)C1(c1ccccc1)c1ccccc1
inactive: SF-268 > 100 µM | UACC-62 > 100 µM | LOX IMVI 70.6 µM | NCI-H23 > 100 µM | RXF 393 28.8 µM | HL-60 8.3 µM | OVCAR-3 40.5 µM | MDA-N > 100 µM | SF-539 > 100 µM | UACC-257 > 100 µM | OVCAR-5 > 100 µM | NCI-H522 44.8 µM | SK-OV-3 > 100 µM | PC-3 19.2 µM | HOP-92 70.3 µM | NCI-H226 99.1 µM | CCRF-CEM 66.5 µM | OVCAR-8 > 100 µM | K562 34.8 µM | SK-MEL-28 > 100 µM | KM12 73.5 µM | ACHN > 100 µM | BT-549 > 100 µM | SNB-19 > 100 µM | NCI/ADR-RES > 100 µM | IGROV-1 > 100 µM | MDA-MB-435 > 100 µM | SK-MEL-5 33.8 µM | U-251 89.1 µM | SK-MEL-2 20.4 µM | 786-0 > 100 µM | Malme-3M 97.7 µM | OVCAR-4 > 100 µM | DU-145 > 100 µM | HCT-116 17.1 µM | HOP-62 14.9 µM | RPMI-8226 14.7 µM | SR 87.5 µM | A498 > 100 µM | A549 > 100 µM | UO-31 51.6 µM | EKVX 48.1 µM | SN12C > 100 µM | MOLT-4 20.1 µM | HT-29 22 µM | MCF7 25.9 µM | SF-295 99.1 µM | CAKI-1 > 100 µM | MDA-MB-231 > 100 µM | M14 > 100 µM | TK-10 > 100 µM | HCC 2998 > 100 µM | Hs-578T > 100 µM | T47D 18.9 µM | SW-620 > 100 µM | COLO 205 80.9 µM
> 100 µM: HCT-15

O=C(c1cc(Cl)cc(Cl)c1)N(C(=S)OC12CC3CC(CC(C3)C1)C2)c1ccccc1
34.6 µM: HCT-15
inactive: SF-268 52.8 µM | UACC-62 32.6 µM | NCI-H23 36.1 µM | RXF 393 41.2 µM | HL-60 24.4 µM | OVCAR-3 45.3 µM | MDA-N 31.8 µM | SF-539 40 µM | UACC-257 43.3 µM | OVCAR-5 46.3 µM | NCI-H522 16 µM | SK-OV-3 32.5 µM | PC-3 35.2 µM | HOP-92 29 µM | NCI-H226 35.5 µM | CCRF-CEM 5.24 µM | OVCAR-8 41.7 µM | SK-MEL-28 59.4 µM | KM12 40.3 µM | ACHN 33.2 µM | BT-549 50.2 µM | SNB-19 45.6 µM | NCI/ADR-RES 37.3 µM | MDA-MB-435 42.2 µM | SK-MEL-5 28.3 µM | U-251 33 µM | SK-MEL-2 19.4 µM | 786-0 32.8 µM | Malme-3M 49.7 µM | OVCAR-4 46.8 µM | DU-145 75.2 µM | HCT-116 28.1 µM | HOP-62 42.7 µM | SR 43.1 µM | A498 34.9 µM | A549 42.7 µM | UO-31 25.1 µM | EKVX 21.8 µM | SN12C 36.5 µM | NCI-H460 35.3 µM | HT-29 39.4 µM | MCF7 30.1 µM | SF-295 34.5 µM | CAKI-1 42.1 µM | MDA-MB-231 38.6 µM | M14 22.7 µM | TK-10 53.3 µM | HCC 2998 33.8 µM | Hs-578T 48.9 µM | T47D 61.2 µM | SNB-75 61 µM | SW-620 39.5 µM | COLO 205 18.6 µM
